This note sets out measurements from patent US20190298669A1 (priority 2018, published 2019).

The test concerns A/Mississippi/3/2001 H275Y mutant (H1N1). Format: cell-based, influenza A virus.

In turn, `CCOC(=O)C1=C[C@@H](OC(CC)CC)[C@H](NC(C)=O)[C@@H](N)C1` [oseltamivir] returned a reduction of virus of 43%.
